The test relates to C. felis fleas. As to the kind of experiment: Efficacy against fleas on dogs, oral 35 μg/kg study. In kind it is in vivo. As for the experimental part:
The second objective was to investigate the pharmacodynamics between the fluralaner plasmatic dose and the effectiveness against fleas. • IVP: Investigational Veterinary Product, is pure Fluralaner+DMSO (35 μg/kg on Days 0 to 3 (0.35 mL/kg)) • Control product is DMSO (0.35 mL/kg on Days 0 to 3)
On Days 0, 1, 2 and 3, all dogs assigned to group 2 received the Investigational Veterinary Product. On Days 0 to 3 all dogs in group 1 received the control product at a volume equal to the dogs in group 2. Dogs assigned to group 1 received the control product and served as Placebo controls. The quantity of Investigational Veterinary Product and control product administered was calculated according to the dog's individual body weight measured on Day −1.
Dogs were infested with approximately 100 (±8) viable, adult, C. felis fleas on Day −6 for randomisation purposes and on Days 1, 2 and 3 to assess efficacy. Fleas were removed and counted on Days −5, 2, 3 and 4 (24 hours±2 hours after infestation). Dogs were also infested with approximately 50 (±4) viable, adult, unfed R. sanguineus ticks on Day 4 to assess acaricidal efficacy. Ticks will be removed and counted on Day 5 (24 hours±2 hours after infestation).
The efficacy against ticks and fleas were calculated for the study groups at each assessment day according to the formulas given below.
Efficacy was calculated as follows: Efficacy (%)=100×(Mc−Mt)/Mc, where: • Mc=Mean number of live ticks (categories 1 to 2) or live fleas on dogs in the negative control group (group 1) at a specific time point. • Mt=Mean number of live ticks (categories 1 to 2) or live fleas on dogs in the IVP group (group 2) • at a specific time point.

Regarding `Cc1cc(C2=NOC(c3cc(Cl)cc(Cl)c3)(C(F)(F)F)C2)ccc1C(=O)NCC(=O)NCC(F)(F)F` (centres unmarked) [fluralaner, Fluralaner], the efficacy against fleas is, setting by setting: (24 h after the first three doses of 35 μg/kg per day, dogs) 100%; (24 h after the first two doses of 35 μg/kg per day, dogs) 99.6%; (after the fourth and final dose of 35 μg/kg per day, dogs) 99.8%; (period Day 2 to Day 4, 24 hours after infestation, oral 35 μg/kg Days 0-3, dogs) 100%. Also, the “efficacy against fleas from 24 hours after administration” value (infestation at D1, first measurement at D2, whatever the dose) is given as “high efficacy”.

The values above are taken from US12714696B2, “Low dose fluralaner compositions for protection against parasitic invertebrate pest” (VIRBAC, priority 2019, dated 2026).
